The text below walks through data of patent publication US7598418B2, “Amide derivatives” (Institute of Medicinal Molecular Design, Inc., priority 2002, dated 2009).

The assay concerns Jurkat cells. The experiment in a line: Jurkat cell proliferation, MTS method: compound alone or combined with bleomycin. Type of assay: cell-based. Further details: key: ┌++┘ indicates observation of remarkable enhancement; ┌+┘ indicates moderated enhancement. As to conditions: compound plus bleomycin 5 μg/ml or 10 μg/ml, 36 hours, survival rate vs DMSO control. As to the method:
By using aforementioned synthetic compounds, effects on proliferation of Jurkat cells by sole administration and inhibitory effects on cell proliferation by administration in combination with bleomycin were examined. Materials and methods are as follows. Jurkat cells obtained from Dainippon Pharmaceutical Co. Ltd. were inoculated at about 10,000 cells per well in a 96 well culture plate, and incubated in 10% bovine fetal serum (Irvine Scientific) supplemented with RPMI1640 (ICN) medium in 5% CO2 incubator at 37° C. […] 36 hours after the incubation, the number of living cells was counted by the MTS method.
More specifically, 20 μl of CellTiter96™ AQueous One Solution (Promega) was added per one well, and after the cells were incubated for additional one hour, an absorbance at 490 nm was measured by using a microplate reader. The same culture added with DMSO as a solvent at final concentration of 0.25% was used as a control. The number of cells in the control was considered as 100% survival rate, and for each compound, survival rates by sole administration or a combined administration were calculated. […] In the table, ┌++┘ indicates observation of remarkable enhancement, ┌+┘ indicates moderated enhancement.
(Formazan colour is commonly taken as a measure of viable cells.)

On to `Cc1ccc(S(=O)(=O)Oc2cccc3c(S(=O)(=O)NCc4ccc(N(C)C)cc4)cccc23)cc1` [Compound 1-17, N-[4-(Dimethylamino)benzyl]-5-{[(4-methylphenyl)sulfonyl]oxy}naphthalene-1-sulfonamide], for which the “Activity (enhancement of inhibitory effect on cell proliferation in combination with bleomycin)” value is recorded as “++”.
The result for `O=S(=O)(NCc1ccc(C(F)(F)F)cc1)c1cccc2c(O)cccc12` [Compound 2-9, N-[4-(Trifluoromethyl)benzyl]-5-hydroxynaphthalene-1-sulfonamide] reads “+”; that for `COc1cccc(CNS(=O)(=O)c2ccc3c(O)cccc3c2)c1OC` [Compound 4-6, N-(2,3-Dimethoxybenzyl)-5-hydroxynaphthalene-2-sulfonamide], “+”; that for `Cc1ccc(S(=O)(=O)Oc2cccc3c(S(=O)(=O)Nc4ccccc4)cccc23)cc1` [Compound 1-24, N-Phenyl-5-{[(4-methylphenyl)sulfonyl]oxy}naphthalene-1-sulfonamide], “++”.
The result for `O=[N+]([O-])c1cccc(CNS(=O)(=O)c2ccc3c(O)cccc3c2)c1` [Compound 4-3, N-(3-Nitrobenzyl)-5-hydroxynaphthalene-2-sulfonamide] reads “+”.
Next, `O=S(=O)(NCc1ccc(Cl)cc1Cl)c1cccc2c(O)cccc12` [Compound 2-3, N-(2,4-Dichlorobenzyl)-5-hydroxynaphthalene-1-sulfonamide]: “++”.
With `Cc1ccc(S(=O)(=O)Oc2cccc3c(S(=O)(=O)NCc4ccc(Cl)cc4Cl)cccc23)cc1` [Compound 1-3, N-(2,4-Dichlorobenzyl)-5-{[(4-methylphenyl)sulfonyl]oxy}naphthalene-1-sulfonamide], the “Activity (enhancement of inhibitory effect on cell proliferation in combination with bleomycin)” value is given as “++”.
Next, `COc1ccccc1CNS(=O)(=O)c1cccc2c(O)cccc12` [Compound 2-11, N-(2-Methoxylbenzyl)-5-hydroxynaphthalene-1-sulfonamide]: “+”; `O=S(=O)(NCCc1ccccc1)c1cccc2c(O)cccc12` [Compound 2-25, N-(2-Phenethyl)-5-hydroxynaphthalene-1-sulfonamide]: “+”; `CC(=O)Oc1cccc2cc(S(=O)(=O)NCc3ccc(C(F)(F)F)cc3)ccc12` [Compound 3-5, 5-Acetyloxy-N-[4-(trifluoromethyl)benzyl]naphthalene-2-sulfonamide]: “+”.
The result for `O=S(=O)(NCCc1ccccc1)c1ccc2c(O)cccc2c1` [Compound 4-13, N-(2-Phenethyl)-5-hydroxynaphthalene-2-sulfonamide] reads “+”; that for `Cc1ccc(S(=O)(=O)Oc2cccc3c(S(=O)(=O)NCc4ccccc4C)cccc23)cc1` [Compound 1-6, N-(2-Methylbenzyl)-5-{[(4-methylphenyl)sulfonyl]oxy}naphthalene-1-sulfonamide], “++”; that for `COc1cccc(CNS(=O)(=O)c2cccc3c(OS(=O)(=O)c4ccc(C)cc4)cccc23)c1` [Compound 1-12, N-(3-Methoxybenzyl)-5-{[(4-methylphenyl)sulfonyl]oxy}naphthalene-1-sulfonamide], “+”.
With `CC(C)(C)c1ccc(CNS(=O)(=O)c2cccc3c(O)cccc23)cc1` [Compound 2-7, N-[4-(tert-Butyl)benzyl]-5-hydroxynaphthalene-i-sulfonamide], the “Activity (enhancement of inhibitory effect on cell proliferation in combination with bleomycin)” value is on record as “++”.
The result for `Cc1ccc(S(=O)(=O)Oc2cccc3c(S(=O)(=O)NCc4ccc([N+](=O)[O-])cc4)cccc23)cc1` [Compound 1-5, N-(4-Nitrobenzyl)-5-{[(4-methylphenyl)sulfonyl]oxy}naphthalene-1-sulfonamide] reads “++”; that for `Cc1ccc(S(=O)(=O)Oc2cccc3c(S(=O)(=O)NCc4c(F)cccc4F)cccc23)cc1` [Compound 1-2, N-(2,6-Difluorobenzyl)-5-{[(4-methylphenyl)sulfonyl]oxy}naphthalene-1-sulfonamide], “+”.
`CC(=O)Oc1cccc2cc(S(=O)(=O)NCc3ccccc3)ccc12` [Compound 3-1, 5-Acetyloxy-N-benzylnaphthalene-2-sulfonamide]: the “Activity (enhancement of inhibitory effect on cell proliferation in combination with bleomycin)” value was “+”.
The result for `CC(=O)Oc1cccc2cc(S(=O)(=O)NCc3ccc(C(C)(C)C)cc3)ccc12` [Compound 3-4, 5-Acetyloxy-N-[4-(tert-butyl)benzyl]naphthalene-2-sulfonamide] reads “++”.
The result for `COc1cccc(CNS(=O)(=O)c2ccc3c(N)cccc3c2)c1OC` [Compound 6-3, 5-Amino-N-(2,3-dimethoxybenzyl)naphthalene-2-sulfonamide] reads “+”; that for `Nc1cccc2c(C(=O)NCc3ccccc3)cccc12` [Compound 11-1, 5-Amino-N-benzylnaphthalene-1-carboxamide], “+”.
For the compound `O=S(=O)(NCc1cccc2ccccc12)c1cccc2c(O)cccc12` [Compound 2-19, N-(1-Naphthylmethyl)-5-hydroxynaphthalene-1-sulfonamide], the “Activity (enhancement of inhibitory effect on cell proliferation in combination with bleomycin)” value is “++”.
For `Cc1ccc(S(=O)(=O)Oc2cccc3c(S(=O)(=O)NC(C)c4ccccc4)cccc23)cc1` (stereo not shown) [Compound 1-26, N-(1-Phenethyl)-5-{[(4-methylphenyl)sulfonyl]oxy}naphthalene-1-sulfonamide], the “Activity (enhancement of inhibitory effect on cell proliferation in combination with bleomycin)” value is given as “++”.
For `O=S(=O)(NCc1ccccc1C(F)(F)F)c1cccc2c(O)cccc12` [Compound 2-8, N-[2-(Trifluoromethyl)benzyl]-5-hydroxynaphthalene-1-sulfonamide], the “Activity (enhancement of inhibitory effect on cell proliferation in combination with bleomycin)” value is reported as “+”.
`CC(C)(C)c1ccc(CNS(=O)(=O)c2ccc3c(O)cccc3c2)cc1` [Compound 4-4, N-[4-(tert-Butyl)benzyl]-5-hydroxynaphthalene-2-sulfonamide]: the “Activity (enhancement of inhibitory effect on cell proliferation in combination with bleomycin)” value is “++”.
Next, `Cc1ccc(S(=O)(=O)Oc2cccc3c(S(=O)(=O)NCCc4ccccc4)cccc23)cc1` [Compound 1-25, N-(2-Phenethyl)-5-{[(4-methylphenyl)sulfonyl]oxy}naphthalene-1-sulfonamide]: “+”; `Cc1ccc(S(=O)(=O)Oc2cccc3c(S(=O)(=O)NCc4ccc(C(C)(C)C)cc4)cccc23)cc1` [Compound 1-7, N-[4-(tert-Butyl)benzyl]-5-{[(4-methylphenyl)sulfonyl]oxy}naphthalene-1-sulfonamide]: “++”; `CC(C)(C)c1ccc(CNS(=O)(=O)c2cccc3cc(N)ccc23)cc1` [Compound 8-2, 6-Amino-N-[4-(tert-butyl)benzyl]naphthalene-1-sulfonamide]: “+”.
The result for `O=S(=O)(NCc1ccccc1)c1ccc2c(O)cccc2c1` [Compound 4-1, N-Benzyl-5-hydroxynaphthalene-2-sulfonamide] reads “+”.
Next, `O=S(=O)(NCc1ccc(C(F)(F)F)cc1)c1ccc2c(O)cccc2c1` [Compound 4-5, N-[4-(Trifluoromethyl)benzyl]-5-hydroxynaphthalene-2-sulfonamide]: “+”; `Cc1ccc(S(=O)(=O)Oc2cccc3c(S(=O)(=O)NCc4ccc5c(c4)OCO5)cccc23)cc1` [Compound 1-15, N-(3,4-Methylenedioxybenzyl)-5-{[(4-methylphenyl)sulfonyl]oxy}naphthalene-1-sulfonamide]: “+”.
Take `Cc1ccc(S(=O)(=O)Oc2cccc3c(S(=O)(=O)NCc4ccc(C)o4)cccc23)cc1` [Compound 1-20, N-[(5-Methylfuran-2-yl)methyl]-5-{[(4-methylphenyl)sulfonyl]oxy}naphthalene-1-sulfonamide]: the “Activity (enhancement of inhibitory effect on cell proliferation in combination with bleomycin)” value is “+”.
The result for `COc1cccc(CNS(=O)(=O)c2cccc3c(OS(=O)(=O)c4ccc(C)cc4)cccc23)c1OC` [Compound 1-13, N-(2,3-Dimethoxybenzyl)-5-{[(4-methylphenyl)sulfonyl]oxy}naphthalene-1-sulfonamide] reads “+”; that for `CC(=O)Oc1cccc2cc(S(=O)(=O)NCc3ccc(C)o3)ccc12` [Compound 3-9, 5-Acetyloxy-N-[(5-methylfuran-2-yl)methyl]naphthalene-2-sulfonamide], “+”; that for `Cc1ccc(S(=O)(=O)Oc2cccc3c(S(=O)(=O)NCC4CCCCC4)cccc23)cc1` [Compound 1-23, N-Cyclohexylmethyl-5-{[(4-methylphenyl)sulfonyl]oxy}naphthalene-1-sulfonamide], “+”.
